Measurements as given in patent US20210171554A1, “BENZOTHIOPHENE ESTROGEN RECEPTOR MODULATORS TO TREAT MEDICAL DISORDERS” (G1 Therapeutics, Inc., priority 2018, published 2021).

Assays:
[1] = target: T1, human estrogen receptor (ERα) (Homo sapiens, UniProt P03372); experiment: Human ERα Reporter Assay (Indigo Biosciences, antagonist mode); format: cell-based; details: antagonist activity, reporter cells with 17β-estradiol 8E-10 M, 24 hours
T1 construct: purchased Indigo Biosciences #1B00401
T1 sequence (P03372 1-595): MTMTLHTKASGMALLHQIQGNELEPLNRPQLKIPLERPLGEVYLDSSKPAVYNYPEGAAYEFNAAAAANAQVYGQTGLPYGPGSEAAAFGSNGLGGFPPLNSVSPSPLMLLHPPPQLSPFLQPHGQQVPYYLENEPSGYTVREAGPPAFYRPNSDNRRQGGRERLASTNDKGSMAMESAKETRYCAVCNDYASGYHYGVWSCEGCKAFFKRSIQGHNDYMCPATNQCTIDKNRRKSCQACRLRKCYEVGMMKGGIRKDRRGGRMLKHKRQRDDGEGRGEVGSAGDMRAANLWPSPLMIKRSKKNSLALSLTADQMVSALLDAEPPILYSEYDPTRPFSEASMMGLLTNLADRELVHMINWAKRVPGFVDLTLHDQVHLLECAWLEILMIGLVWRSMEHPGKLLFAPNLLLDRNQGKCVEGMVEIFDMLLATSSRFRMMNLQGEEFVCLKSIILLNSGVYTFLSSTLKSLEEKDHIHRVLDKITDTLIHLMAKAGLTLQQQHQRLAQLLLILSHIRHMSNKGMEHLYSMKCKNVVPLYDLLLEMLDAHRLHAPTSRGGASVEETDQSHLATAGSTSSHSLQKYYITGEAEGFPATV
Procedure: All reagents used in this assay was supplied in the Human ERα Reporter Assay by Indigo Biosciences #1B00401. In an effort to screen selective estrogen receptor degraders (SERDs), the Human ERα Reporter Assay, supplied by Indigo Biosciences, was utilized to quantify antagonist functional activity against the human estrogen receptor. Reporter cells were thawed at 37° C. and added to pre-warmed to 37° C. cell recovery medium (CRM). Stock concentration of 17β-estradiol was serially diluted in CRM. Diluted 17β-estradiol was added to CRM containing reporter cells resulting in a working concentration of 1.6 nM (2×). Cells plus 17β-estradiol were dispensed in a kit-supplied white walled 96-well plate. Concentrated stocks of test compounds were diluted to 2× working concentrations in cell screening medium (CSM). 2× concentrated compounds were added to the plated cells in a dose-dependent manner resulting in a final concentration range of 1E-11 to 1E-5 M and a final […] concentration of 8E-10 M. Assay plates were incubated for 24 hours in a humidified 37° C. incubator. Culture medium was removed from the assay plates by inversion. Detection substrate and buffer was warmed to room temperature, mixed thoroughly, and immediately added to the assay plates. Assay plates were incubated for 15 minutes at room temperature protected from light. Luminescence was measured in a Synergy HTX luminescence plate reader. Data is processed utilizing GraphPad Prism 7 by graphing the relative light units measured at each compound concentration.
(§1) In the below table for the Estrogen Receptor Degradation Assay and the Human ERα Reporter Assay: […]

estrogen receptor = target: T2, estrogen receptor (Homo sapiens, UniProt P03372); experiment: Estrogen Receptor (ER) Degradation Assay (In-Cell Western, MCF7 cells); format: cell-based; design: key to % Estrogen Receptor Remaining: **** denotes 0-0% Estrogen Receptor remaining; *** denotes 417% Estrogen Receptor remaining; ** denotes 719% Estrogen Receptor remaining; * denotes 9110% Estrogen Receptor remaining; details: for DC50: 24 hours incubation, In-Cell Western, read-out: Estrogen Receptor Degradation Assay IC50; for % Estrogen Receptor Remaining: vehicle set to 100% ER
T2 construct: MCF7 cells, which are estrogen receptor positive; endogenous in cells; host or cells: MCF7
T2 sequence (P03372 1-595): T1 sequence (P03372 1-595)
Procedure: A screening strategy was implemented utilizing an In-Cell Western assay to measure their ability to degrade the estrogen receptor in vitro. MCF7 cells, which are estrogen receptor positive, were plated at a cell density of […] into black walled clear bottom 96-well plates. Cells were incubated in phenol red free Dulbecco's Modified Eagle Media (DMEM) supplemented with 8% charcoal-stripped fetal bovine calf serum for 24 hours in a humidified 37° C. incubator. Concentrated stock compounds were diluted to 10× in complete media. Compounds were added to the plated cells in a dose-dependent manner ranging from 1E-12 to 1E-05 M and incubated for an additional 24 hours at 37° C. Culture medium was removed from the culture plates by gentle inversion. Cells were fixed in 4% paraformaldehyde in 1×phosphate buffered saline-calcium magnesium free (PBS-CMF) for 15 minutes at room temperature, washed 3 times for 5 minutes each in 1×PBS-CMF. Cells were permeabilized in immunofluorescence (IF) blocking buffer (Cell Signaling #12411) containing 0.3% Triton X100. Cells were washed 3 times for 5 minutes each in 1×PBS-CMF and incubated in estrogen receptor α (D6R2W) rabbit primary antibody (Cell Signaling #13258) diluted 1:300 in IF antibody dilution buffer (Cell Signaling #12378). Cells were washed 3 times for 5 minutes each in 1×PBS-CMF and stained with goat anti-rabbit (Biotium #CF770) secondary antibody diluted 1:2000 in IF antibody dilution buffer and normalizing stain CellTag 700 diluted 1:500 (Licor #926-41090). ER protein expression was assessed by the Licor Odyssey CLx imaging system using Image Studio v5.2. Data is processed utilizing GraphPad Prism 7 by subtracting background from the vehicle and setting the vehicle to 100% ER activity, followed by comparing treated samples to vehicle.
as §1

| IC50 [1] | DC50 (estrogen receptor) | % Estrogen Receptor Remaining (estrogen receptor) | SMILES |
| --- | --- | --- | --- |
| < 1000 nM | < 1000 nM | *** | Cc1cc(F)cc(C)c1C(=O)c1sc2cc(O)ccc2c1Oc1ccc(O[C@H]2CCNC2)cc1 [Compound 101, (S)-(4-fluoro-2,6-dimethylphenyl)(6-hydroxy-3-(4-(pyrrolidin-3-yloxy)phenoxy)benzo[b]thiophen-2-yl)methanone] |
| < 1000 nM | < 1000 nM | *** | Cc1cc(F)cc(C)c1C(=O)c1sc2cc(O)ccc2c1-c1ccc(O[C@@H]2CCN(CCCF)C2)cc1 [Compound 110, (R)-(4-fluoro-2,6-dimethylphenyl)(3-(4-((1-(3-fluoropropyl)pyrrolidin-3-yl)oxy)phenyl)-6-hydroxybenzo[b]thiophen-2-yl)methanone] |
| < 50000 nM | < 1000 nM | ** | Cc1cc(F)cc(C)c1C(=O)c1sc2cc(O)ccc2c1-c1ccc(O[C@H]2CCN(CCCF)C2)cc1 [Compound 108, (S)-(4-fluoro-2,6-dimethylphenyl)(3-(4-((1-(3-fluoropropyl)pyrrolidin-3-yl)oxy)phenyl)-6-hydroxybenzo[b]thiophen-2-yl)methanone] |
| < 1000 nM | < 1000 nM | *** | Cc1cc(F)cc(C)c1C(=O)c1sc2cc(O)ccc2c1-c1ccc(OCCN2CCCC2)cc1 [Compound 109, (4-fluoro-2,6-dimethylphenyl)(6-hydroxy-3-(4-(2-(pyrrolidin-1-yl)ethoxy)phenyl)benzo[b]thiophen-2-yl)methanone] |
| < 1000 nM | < 1000 nM | *** | CCNCCc1ccc(Oc2c(C(=O)c3c(C)cc(F)cc3C)sc3cc(C(=O)O)ccc23)cc1 [Compound 106, 3-(4-(2-(ethylamino)ethyl)phenoxy)-2-(4-fluoro-2,6-dimethylbenzoyl)benzo[b]thiophene-6-carboxylic acid] |
|  | < 1000 nM | ** | Cc1cc(F)cc(C)c1C(=O)c1sc2cc(O)ccc2c1Oc1ccc(OCCN2CCC(CCCF)C2)cc1 (stereo not shown) [Compound 115, (4-fluoro-2,6-dimethylphenyl)(3-(4-(2-(3-(3-fluoropropyl)pyrrolidin-1-yl)ethoxy)phenoxy)-6-hydroxybenzo[b]thiophen-2-yl)methanone] |

| SMILES | IC50 [1] | DC50 (estrogen receptor) | % Estrogen Receptor Remaining (estrogen receptor) |
| --- | --- | --- | --- |
| Cc1cc(F)cc(C)c1C(=O)c1sc2cc(O)c(F)cc2c1Oc1ccc(OC2CCN(CCCF)C2)cc1 (stereo in doubt) [Compound 113, (R)-(4-fluoro-2,6-dimethylphenyl)(5-fluoro-3-(4-((1-(3-fluoropropyl)pyrrolidin-3-yl)oxy)phenoxy)-6-hydroxybenzo[b]thiophen-2-yl)methanone] | < 1000 nM | < 1000 nM | **** (**** denotes 0-0% Estrogen Receptor remaining) |
| Cc1cc(F)cc(C)c1C(=O)c1sc2c(F)c(O)ccc2c1Oc1ccc(OC2CCN(CCCF)C2)cc1 (stereo in doubt) [Compound 112, (R)-(4-fluoro-2,6-dimethylphenyl)(7-fluoro-3-(4-((1-(3-fluoropropyl)pyrrolidin-3-yl)oxy)phenoxy)-6-hydroxybenzo[b]thiophen-2-yl)methanone] | < 1000 nM | < 1000 nM | **** (**** denotes 0-0% Estrogen Receptor remaining) |
| Cc1cc(F)cc(C)c1C(=O)c1sc2cc(O)ccc2c1Oc1ccc(O[C@@H]2CCN(CCCF)C2)cc1 [Compound 102, (R)-(4-fluoro-2,6-dimethylphenyl)(3-(4-((1-(3-fluoropropyl)pyrrolidin-3-yl)oxy)phenoxy)-6-hydroxybenzo[b]thiophen-2-yl)methanone] | < 1000 nM | < 1000 nM | **** (**** denotes 0-0% Estrogen Receptor remaining) |
| Cc1cc(F)cc(C)c1C(=O)c1sc2cc(S(N)(=O)=O)ccc2c1Oc1ccc(O[C@H]2CCN(CCCF)C2)cc1 [Compound 116, (S)-2-(4-fluoro-2,6-dimethylbenzoyl)-3-(4-((1-(3-fluoropropyl)pyrrolidin-3-yl)oxy)phenoxy)benzo[b]thiophene-6-sulfonamide] |  | < 1000 nM | **** (**** denotes 0-0% Estrogen Receptor remaining) |
| Cc1cc(F)cc(C)c1C(=O)c1sc2cc(O)ccc2c1Oc1ccc(O[C@H]2CCN(CCCF)C2)cc1 [Compound 100, (S)-(4-fluoro-2,6-dimethylphenyl)(3-(4-((1-(3-fluoropropyl)pyrrolidin-3-yl)oxy)phenoxy)-6-hydroxybenzo[b]thiophen-2-yl)methanone] | < 1000 nM | < 1000 nM | **** (**** denotes 0-0% Estrogen Receptor remaining) |
